Activity calls are given as the source filed them. The calls are words filed in the database; no cut-off is given here.
Legend:
[1] = molecular target: T1, cGMP-specific 3',5'-cyclic phosphodiesterase (Homo sapiens, UniProt O76074); experiment: Inhibition of PDE5A (unknown origin) using […] as substrate incubated for 1 hr by fluorescence polarization assay
[2] = molecular target: T1, cGMP-specific 3',5'-cyclic phosphodiesterase; experiment: Inhibition of PDE5A (unknown origin) using […] as substrate at 100 nM incubated for 1 hr by fluorescence polarization assay relative to control
[3] = tested on: Rattus norvegicus; experiment: Anti-Pulmonary arterial hypertension in mono-crotaline-treated Sprague-Dawley rat model assessed as decrease in RVHI level at 2.5 to 5 mg/kg for 21 days; assay type: functional, organism-based; settings: dose 2.5-5 mg/kg, time 21.0 day
[4] = Clearance in Sprague-Dawley rat at 10 mg/kg, po measured for 5 to 1440 mins by LC-MS/MS analysis; assay type: ADME, organism-based; settings: in vivo, time 5-1440 min
[5] = molecular target: Cytochrome P450 2C9 (Homo sapiens, UniProt P11712); experiment: Inhibition of CYP2C9 (unknown origin); assay type: ADME
[6] = molecular target: cGMP-dependent 3',5'-cyclic phosphodiesterase (Homo sapiens, UniProt O00408); experiment: Inhibition of PDE2A (unknown origin) using FAM-cAMP as substrate incubated for 1 hr by fluorescence polarization assay
[7] = AUC (0 to t) in Sprague-Dawley rat at 10 mg/kg, po measured for 5 to 1440 mins by LC-MS/MS analysis; assay type: ADME, organism-based; settings: in vivo, time 5-1440 min
[8] = Half life in rat liver microsomes; assay type: ADME, Microsome
[9] = tested on: Rattus norvegicus; experiment: Anti-Pulmonary arterial hypertension in mono-crotaline-treated Sprague-Dawley rat model assessed as decrease in pulmonary arteriole wall thickness at 2.5 to 5 mg/kg for 21 days by H and E staining based analysis; assay type: functional, organism-based; settings: dose 2.5-5 mg/kg, time 21.0 day
[10] = Half life in Sprague-Dawley rat at 2 mg/kg, iv measured for 5 to 1440 mins by LC-MS/MS analysis; assay type: ADME, organism-based; settings: in vivo, time 5-1440 min
[11] = molecular target: High affinity cAMP-specific and IBMX-insensitive 3',5'-cyclic phosphodiesterase 8A (Homo sapiens, UniProt O60658); experiment: Inhibition of PDE8A1 (unknown origin) using FAM-cAMP as substrate incubated for 1 hr by fluorescence polarization assay
[12] = Cmax in Sprague-Dawley rat at 2 mg/kg, iv measured for 5 to 1440 mins by LC-MS/MS analysis; assay type: ADME, organism-based; settings: in vivo, time 5-1440 min
[13] = Clearance in Sprague-Dawley rat at 2 mg/kg, iv measured for 5 to 1440 mins by LC-MS/MS analysis; assay type: ADME, organism-based; settings: in vivo, time 5-1440 min
[14] = MRT (0 to infinity) in Sprague-Dawley rat at 10 mg/kg, po measured for 5 to 1440 mins by LC-MS/MS analysis; assay type: ADME, organism-based; settings: in vivo, time 5-1440 min
[15] = Acute toxicity in mouse assessed as drug tolerance at >1.5 g/kg, po; settings: in vivo, 1500 mg/kg
[16] = Tmax in Sprague-Dawley rat at 10 mg/kg, po measured for 5 to 1440 mins by LC-MS/MS analysis; assay type: ADME, organism-based; settings: in vivo, time 5-1440 min
[17] = MRT (0 to t) in Sprague-Dawley rat at 10 mg/kg, po measured for 5 to 1440 mins by LC-MS/MS analysis; assay type: ADME, organism-based; settings: in vivo, time 5-1440 min
[18] = molecular target: Cytochrome P450 2C19 (Homo sapiens, UniProt P33261); experiment: Inhibition of CYP2C19 (unknown origin); assay type: ADME
[19] = Apparent volume of distribution in Sprague-Dawley rat at 2 mg/kg, iv measured for 5 to 1440 mins by LC-MS/MS analysis; assay type: ADME, organism-based; settings: in vivo, time 5-1440 min, read-out: Vz
[20] = AUC (0 to t) in Sprague-Dawley rat at 2 mg/kg, iv measured for 5 to 1440 mins by LC-MS/MS analysis; assay type: ADME, organism-based; settings: in vivo, time 5-1440 min
[21] = AUC (0 to infinity) in Sprague-Dawley rat at 2 mg/kg, iv measured for 5 to 1440 mins by LC-MS/MS analysis; assay type: ADME, organism-based; settings: in vivo, time 5-1440 min
[22] = Oral bioavailability in Sprague-Dawley rat at 10 mg/kg measured for 5 to 1440 mins by LC-MS/MS analysis; assay type: ADME, organism-based; settings: in vivo, time 5-1440 min
[23] = tested on: Rattus norvegicus; experiment: Anti-Pulmonary arterial hypertension in mono-crotaline-treated Sprague-Dawley rat model assessed as decrease in mPAP level at 5 mg/kg for 21 days; assay type: functional, organism-based; settings: time 21.0 day
[24] = Volume of distribution in Sprague-Dawley rat at 10 mg/kg, po measured for 5 to 1440 mins by LC-MS/MS analysis; assay type: ADME, organism-based; settings: in vivo, time 5-1440 min
[25] = molecular target: Cytochrome P450 2D6 (Homo sapiens, UniProt P10635); experiment: Inhibition of CYP2D6 (unknown origin); assay type: ADME
[26] = tested on: Rattus norvegicus; experiment: Anti-Pulmonary arterial hypertension in mono-crotaline-treated Sprague-Dawley rat model assessed as decrease in mPAP level at 2.5 mg/kg for 21 days; assay type: functional, organism-based; settings: time 21.0 day
[27] = molecular target: T2, Cytochrome P450 1A2 (Homo sapiens, UniProt P05177); experiment: Inhibition of CYP1A2 (unknown origin); assay type: ADME
T2 sequence (P05177 whole entry): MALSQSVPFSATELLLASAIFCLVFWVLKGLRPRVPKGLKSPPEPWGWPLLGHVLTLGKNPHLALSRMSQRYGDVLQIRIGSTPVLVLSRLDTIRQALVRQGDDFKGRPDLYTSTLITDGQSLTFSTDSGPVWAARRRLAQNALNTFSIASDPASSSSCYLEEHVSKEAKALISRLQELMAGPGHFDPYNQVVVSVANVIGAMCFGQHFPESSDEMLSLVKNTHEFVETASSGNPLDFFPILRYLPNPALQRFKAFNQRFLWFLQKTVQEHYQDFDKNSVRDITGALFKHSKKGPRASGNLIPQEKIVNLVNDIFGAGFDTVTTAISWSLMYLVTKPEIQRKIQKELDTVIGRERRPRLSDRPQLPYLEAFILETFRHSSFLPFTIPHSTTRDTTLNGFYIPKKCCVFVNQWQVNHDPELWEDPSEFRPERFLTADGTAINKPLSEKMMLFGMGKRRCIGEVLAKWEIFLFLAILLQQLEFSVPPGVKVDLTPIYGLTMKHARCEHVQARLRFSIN

[28] = molecular target: 3',5'-cyclic-AMP phosphodiesterase 4D (Homo sapiens, UniProt Q08499); experiment: Inhibition of PDE4D2 (unknown origin) using FAM-cAMP as substrate incubated for 1 hr by fluorescence polarization assay
[29] = Half life in Sprague-Dawley rat at 10 mg/kg, po measured for 5 to 1440 mins by LC-MS/MS analysis; assay type: ADME, organism-based; settings: in vivo, time 5-1440 min
[30] = molecular target: High affinity cGMP-specific 3',5'-cyclic phosphodiesterase 9A (Homo sapiens, UniProt O76083); experiment: Inhibition of PDE9A2 (unknown origin) using […] as substrate incubated for 1 hr by fluorescence polarization assay
[31] = molecular target: Dual specificity calcium/calmodulin-dependent 3',5'-cyclic nucleotide phosphodiesterase 1C (Homo sapiens, UniProt Q14123); experiment: Inhibition of PDE1C (unknown origin) using FAM-cAMP as substrate incubated for 1 hr by fluorescence polarization assay
[32] = molecular target: Voltage-gated inwardly rectifying potassium channel KCNH2 (Homo sapiens, UniProt Q12809); experiment: Inhibition of hERG; assay type: toxicity
[33] = Toxicity in mono-crotaline-treated Sprague-Dawley rat model of Pulmonary arterial hypertension assessed as body weight change at 2.5 to 5 mg/kg for 21 days; assay type: organism-based; settings: in vivo, 504 h, dose 2.5-5 mg/kg, time 21 day
[34] = Tmax in Sprague-Dawley rat at 2 mg/kg, iv measured for 5 to 1440 mins by LC-MS/MS analysis; assay type: ADME, organism-based; settings: in vivo, time 5-1440 min
[35] = Cmax in Sprague-Dawley rat at 10 mg/kg, po measured for 5 to 1440 mins by LC-MS/MS analysis; assay type: ADME, organism-based; settings: in vivo, time 5-1440 min
[36] = MRT (0 to t) in Sprague-Dawley rat at 2 mg/kg, iv measured for 5 to 1440 mins by LC-MS/MS analysis; assay type: ADME, organism-based; settings: in vivo, time 5-1440 min
[37] = AUC (0 to infinity) in Sprague-Dawley rat at 10 mg/kg, po measured for 5 to 1440 mins by LC-MS/MS analysis; assay type: ADME, organism-based; settings: in vivo, time 5-1440 min
[38] = molecular target: Cone cGMP-specific 3',5'-cyclic phosphodiesterase subunit alpha' (Homo sapiens, UniProt P51160); experiment: Inhibition of PDE6C (unknown origin) using […] as substrate incubated for 1 hr by fluorescence polarization assay
[39] = molecular target: cGMP-inhibited 3',5'-cyclic phosphodiesterase 3A (Homo sapiens, UniProt Q14432); experiment: Inhibition of PDE3A (unknown origin) using FAM-cAMP as substrate incubated for 1 hr by fluorescence polarization assay
[40] = molecular target: Dual 3',5'-cyclic-AMP and -GMP phosphodiesterase 11A (Homo sapiens, UniProt Q9HCR9); experiment: Inhibition of PDE11A (unknown origin) using FAM-cAMP as substrate incubated for 1 hr by fluorescence polarization assay
[41] = MRT (0 to infinity) in Sprague-Dawley rat at 2 mg/kg, iv measured for 5 to 1440 mins by LC-MS/MS analysis; assay type: ADME, organism-based; settings: in vivo, time 5-1440 min
[42] = molecular target: High affinity 3',5'-cyclic-AMP phosphodiesterase 7A (Homo sapiens, UniProt Q13946); experiment: Inhibition of PDE7A (unknown origin) using FAM-cAMP as substrate incubated for 1 hr by fluorescence polarization assay
[43] = molecular target: Cytochrome P450 3A4 (Homo sapiens, UniProt P08684); experiment: Inhibition of CYP3A4 (unknown origin); assay type: ADME
[44] = molecular target: cAMP and cAMP-inhibited cGMP 3',5'-cyclic phosphodiesterase 10A (Homo sapiens, UniProt Q9Y233); experiment: Inhibition of PDE10A2 (unknown origin) using FAM-cAMP as substrate incubated for 1 hr by fluorescence polarization assay

Chain of Cytochrome P450 2C9 (P11712 whole entry): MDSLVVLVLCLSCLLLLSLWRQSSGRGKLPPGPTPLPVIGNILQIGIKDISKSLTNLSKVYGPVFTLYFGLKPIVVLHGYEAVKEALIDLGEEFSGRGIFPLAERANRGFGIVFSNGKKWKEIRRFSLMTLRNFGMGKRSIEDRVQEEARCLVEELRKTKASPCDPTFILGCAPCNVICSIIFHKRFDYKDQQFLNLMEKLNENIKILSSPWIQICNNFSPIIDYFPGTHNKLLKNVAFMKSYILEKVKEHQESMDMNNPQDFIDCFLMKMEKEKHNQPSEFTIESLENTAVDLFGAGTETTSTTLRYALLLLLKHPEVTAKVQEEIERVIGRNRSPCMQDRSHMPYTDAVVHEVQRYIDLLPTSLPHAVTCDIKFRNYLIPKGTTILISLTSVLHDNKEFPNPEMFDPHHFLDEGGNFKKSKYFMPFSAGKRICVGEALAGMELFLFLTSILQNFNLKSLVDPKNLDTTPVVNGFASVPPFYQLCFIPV
Chain of Cytochrome P450 2C19 (P33261 whole entry): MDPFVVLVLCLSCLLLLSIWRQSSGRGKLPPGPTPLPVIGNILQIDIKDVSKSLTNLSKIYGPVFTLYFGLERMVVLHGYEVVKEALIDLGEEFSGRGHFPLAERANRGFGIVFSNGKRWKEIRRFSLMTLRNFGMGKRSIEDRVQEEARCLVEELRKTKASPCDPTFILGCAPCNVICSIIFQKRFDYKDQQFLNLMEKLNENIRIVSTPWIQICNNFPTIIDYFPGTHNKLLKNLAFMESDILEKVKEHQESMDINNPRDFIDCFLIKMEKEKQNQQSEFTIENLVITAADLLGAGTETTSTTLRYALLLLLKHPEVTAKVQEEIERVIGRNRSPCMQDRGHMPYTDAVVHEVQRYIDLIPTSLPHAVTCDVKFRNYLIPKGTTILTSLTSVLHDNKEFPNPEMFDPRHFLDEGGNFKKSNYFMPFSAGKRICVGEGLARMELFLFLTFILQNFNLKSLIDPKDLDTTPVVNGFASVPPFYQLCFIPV
Chain of High affinity cAMP-specific and IBMX-insensitive 3',5'-cyclic phosphodiesterase 8A (O60658 whole entry): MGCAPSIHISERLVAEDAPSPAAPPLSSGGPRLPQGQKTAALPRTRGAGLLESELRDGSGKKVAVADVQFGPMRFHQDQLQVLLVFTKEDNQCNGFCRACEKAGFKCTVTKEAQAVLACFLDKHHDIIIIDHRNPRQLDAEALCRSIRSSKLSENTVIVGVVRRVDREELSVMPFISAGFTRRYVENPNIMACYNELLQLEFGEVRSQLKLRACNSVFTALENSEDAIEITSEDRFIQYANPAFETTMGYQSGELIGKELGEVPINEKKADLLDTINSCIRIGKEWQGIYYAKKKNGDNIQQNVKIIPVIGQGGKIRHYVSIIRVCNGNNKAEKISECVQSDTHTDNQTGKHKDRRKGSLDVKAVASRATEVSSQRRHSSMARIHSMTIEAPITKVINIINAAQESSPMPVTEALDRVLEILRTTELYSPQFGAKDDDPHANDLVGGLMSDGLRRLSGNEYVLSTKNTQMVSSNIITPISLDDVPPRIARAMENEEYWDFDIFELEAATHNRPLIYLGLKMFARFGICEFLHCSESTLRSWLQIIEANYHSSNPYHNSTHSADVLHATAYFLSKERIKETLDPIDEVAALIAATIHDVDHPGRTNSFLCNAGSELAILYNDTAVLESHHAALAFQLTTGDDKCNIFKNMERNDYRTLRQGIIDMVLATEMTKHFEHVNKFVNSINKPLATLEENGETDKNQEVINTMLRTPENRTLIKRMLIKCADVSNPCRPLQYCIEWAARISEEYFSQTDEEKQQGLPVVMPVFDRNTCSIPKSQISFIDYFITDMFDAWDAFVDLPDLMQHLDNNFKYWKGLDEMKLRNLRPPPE
Chain of Dual 3',5'-cyclic-AMP and -GMP phosphodiesterase 11A (Q9HCR9 whole entry): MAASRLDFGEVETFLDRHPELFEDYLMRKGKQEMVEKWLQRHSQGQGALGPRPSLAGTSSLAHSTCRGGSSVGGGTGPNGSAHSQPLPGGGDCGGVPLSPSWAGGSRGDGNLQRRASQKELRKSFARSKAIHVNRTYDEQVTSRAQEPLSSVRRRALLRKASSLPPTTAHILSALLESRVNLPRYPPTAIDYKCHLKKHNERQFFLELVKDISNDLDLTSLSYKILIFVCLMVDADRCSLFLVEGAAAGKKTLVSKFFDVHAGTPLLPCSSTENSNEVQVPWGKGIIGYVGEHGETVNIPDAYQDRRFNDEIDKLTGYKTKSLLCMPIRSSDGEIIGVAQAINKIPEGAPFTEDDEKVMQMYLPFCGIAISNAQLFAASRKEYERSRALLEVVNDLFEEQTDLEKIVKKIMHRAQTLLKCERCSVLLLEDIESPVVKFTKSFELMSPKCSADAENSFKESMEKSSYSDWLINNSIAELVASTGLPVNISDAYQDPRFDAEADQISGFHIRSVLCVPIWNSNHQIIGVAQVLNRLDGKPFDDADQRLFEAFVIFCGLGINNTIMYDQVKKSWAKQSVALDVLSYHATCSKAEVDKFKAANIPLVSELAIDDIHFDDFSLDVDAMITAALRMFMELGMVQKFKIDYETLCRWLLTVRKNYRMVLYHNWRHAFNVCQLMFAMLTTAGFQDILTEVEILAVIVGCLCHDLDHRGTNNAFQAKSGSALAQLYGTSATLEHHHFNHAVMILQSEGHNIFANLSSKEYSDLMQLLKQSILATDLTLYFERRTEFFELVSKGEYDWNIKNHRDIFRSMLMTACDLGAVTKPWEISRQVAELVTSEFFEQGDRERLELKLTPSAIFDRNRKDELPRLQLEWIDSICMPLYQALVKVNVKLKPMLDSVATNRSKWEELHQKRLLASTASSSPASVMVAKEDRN
Chain of Dual specificity calcium/calmodulin-dependent 3',5'-cyclic nucleotide phosphodiesterase 1C (Q14123 whole entry): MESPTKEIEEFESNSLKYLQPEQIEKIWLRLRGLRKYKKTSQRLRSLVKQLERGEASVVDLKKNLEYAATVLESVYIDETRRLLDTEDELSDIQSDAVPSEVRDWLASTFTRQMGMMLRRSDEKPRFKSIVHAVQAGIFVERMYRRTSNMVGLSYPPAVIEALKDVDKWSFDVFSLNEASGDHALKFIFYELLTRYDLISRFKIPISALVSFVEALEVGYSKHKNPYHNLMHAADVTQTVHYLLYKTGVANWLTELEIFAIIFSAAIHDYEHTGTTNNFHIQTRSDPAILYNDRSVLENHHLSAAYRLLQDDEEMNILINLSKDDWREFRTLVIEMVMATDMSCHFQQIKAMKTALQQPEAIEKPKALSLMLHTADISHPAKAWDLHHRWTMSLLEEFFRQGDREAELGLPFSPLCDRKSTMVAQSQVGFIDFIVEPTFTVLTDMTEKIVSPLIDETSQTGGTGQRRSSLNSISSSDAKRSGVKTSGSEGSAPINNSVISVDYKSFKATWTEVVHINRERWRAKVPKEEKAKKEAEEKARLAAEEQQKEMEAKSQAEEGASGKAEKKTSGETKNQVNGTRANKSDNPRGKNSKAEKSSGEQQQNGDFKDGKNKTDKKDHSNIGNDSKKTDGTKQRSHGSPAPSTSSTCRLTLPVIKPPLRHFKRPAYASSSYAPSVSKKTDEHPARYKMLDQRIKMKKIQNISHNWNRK
Chain of 3',5'-cyclic-AMP phosphodiesterase 4D (Q08499 whole entry): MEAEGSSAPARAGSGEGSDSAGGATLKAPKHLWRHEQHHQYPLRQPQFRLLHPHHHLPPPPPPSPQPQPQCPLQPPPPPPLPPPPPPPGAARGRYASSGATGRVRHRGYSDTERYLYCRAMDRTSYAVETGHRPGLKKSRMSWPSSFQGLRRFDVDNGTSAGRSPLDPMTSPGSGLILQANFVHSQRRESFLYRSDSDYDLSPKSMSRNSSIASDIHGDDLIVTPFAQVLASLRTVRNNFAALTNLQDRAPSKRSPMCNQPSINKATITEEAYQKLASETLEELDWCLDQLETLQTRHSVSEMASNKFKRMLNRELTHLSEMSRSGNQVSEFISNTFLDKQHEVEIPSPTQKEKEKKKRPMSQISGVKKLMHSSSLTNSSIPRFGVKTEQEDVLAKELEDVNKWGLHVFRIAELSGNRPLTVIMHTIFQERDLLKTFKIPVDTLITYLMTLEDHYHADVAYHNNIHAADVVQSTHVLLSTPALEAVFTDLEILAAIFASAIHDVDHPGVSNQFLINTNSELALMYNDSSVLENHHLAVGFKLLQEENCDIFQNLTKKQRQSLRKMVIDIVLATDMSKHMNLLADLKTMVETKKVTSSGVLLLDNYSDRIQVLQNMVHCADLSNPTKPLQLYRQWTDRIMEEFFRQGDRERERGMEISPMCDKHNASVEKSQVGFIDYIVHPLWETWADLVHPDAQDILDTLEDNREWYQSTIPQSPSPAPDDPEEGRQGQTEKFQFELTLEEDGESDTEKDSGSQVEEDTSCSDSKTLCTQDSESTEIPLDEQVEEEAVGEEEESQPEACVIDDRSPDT
Chain of High affinity cGMP-specific 3',5'-cyclic phosphodiesterase 9A (O76083 whole entry): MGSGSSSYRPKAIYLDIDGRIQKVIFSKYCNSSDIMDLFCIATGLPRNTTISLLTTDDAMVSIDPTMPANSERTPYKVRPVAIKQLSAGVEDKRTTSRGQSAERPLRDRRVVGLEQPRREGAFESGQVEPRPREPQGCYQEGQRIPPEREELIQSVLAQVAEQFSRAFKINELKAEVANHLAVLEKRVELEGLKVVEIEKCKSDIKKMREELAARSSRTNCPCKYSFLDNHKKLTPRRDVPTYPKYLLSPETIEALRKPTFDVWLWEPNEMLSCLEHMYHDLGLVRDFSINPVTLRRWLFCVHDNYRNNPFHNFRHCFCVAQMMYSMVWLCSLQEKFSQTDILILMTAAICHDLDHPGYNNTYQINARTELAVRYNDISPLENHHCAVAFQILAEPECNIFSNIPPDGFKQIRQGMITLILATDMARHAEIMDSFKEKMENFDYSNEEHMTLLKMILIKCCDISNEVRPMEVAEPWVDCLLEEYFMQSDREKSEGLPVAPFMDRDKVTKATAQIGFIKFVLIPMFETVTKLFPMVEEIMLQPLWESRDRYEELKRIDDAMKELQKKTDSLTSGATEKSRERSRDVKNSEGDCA

CC(Nc1cccc2c(C3CCCCC3)c(C#N)c(=O)n(Cc3ccccc3)c12)c1ccccn1 (stereo unspecified)
IC50 [1]: 0.034 µM

Cc1ccc(-c2c(C#N)c(=O)n(Cc3ccccc3)c3ccc(NC(C)c4ccccn4)cc23)cc1 (stereo unspecified)
IC50 [1]: 0.291 µM

Cc1ccc(-c2c(C#N)c(=O)n(Cc3ccccc3)c3c(NC(C)c4ccccn4)cccc23)cc1 (stereo unspecified)
IC50 [1]: 0.01 µM

Cc1ccc(-c2c(C#N)c(=O)n(Cc3ccc(F)cc3)c3c(NC(C)c4ccccn4)cccc23)cc1 (stereo unspecified)
inhibition [2]: 5%

COc1ccc(-c2c(C#N)c(=O)n(Cc3ccccc3)c3c(NC(C)c4ccccn4)cccc23)cc1 (stereo unspecified)
IC50 [1]: 0.005 µM

COc1ccc(-c2c(C#N)c(=O)n(Cc3ccccc3)c3c(N[C@H](C)c4ccccn4)cccc23)cc1
Activity [3]: Active
CL/F [4]: 525 mL/min/kg
IC50 [5]: 9.76 µM
IC50 [6]: 3.38 µM
AUC(0-t) [7]: 339 ng·h/mL
half-life [8]: 4.41 min
Activity [9]: Active
half-life [10]: 2.25 h
IC50 [11]: > 100 µM
Cmax [12]: 985 ng/mL
clearance [13]: 83.3 mL/min/kg
MRT inf [14]: 6.4 h
Activity [15]: Non-toxic
Tmax [16]: 4 h
MRT last [17]: 6.3 h
IC50 [18]: 4.63 µM
Vd [19]: 16.3 L/kg
AUC(0-t) [20]: 399 ng·h/mL
AUC(0-inf) [21]: 399 ng·h/mL
bioavailability [22]: 16.8%
Activity [23]: Active; The Effect Was Marginally Superior To That Of Sildenafil
Vz [24]: 126.6 L/kg
IC50 [25]: > 50 µM
Activity [26]: inactive
IC50 [27]: > 50 µM
IC50 [28]: 53.3 µM
half-life [29]: 2.79 h
IC50 [30]: > 100 µM
IC50 [31]: 10.5 µM
IC50 [32]: > 30 µM
Activity [33]: Non-toxic
Tmax [34]: 4.98 min
Cmax [35]: 58.4 ng/mL
MRT last [36]: 0.75 h
AUC(0-inf) [37]: 340 ng·h/mL
IC50 [38]: 0.02 µM
IC50 [39]: > 100 µM
IC50 [40]: > 100 µM
MRT inf [41]: 0.76 h
IC50 [42]: 25.7 µM
IC50 [43]: > 50 µM
IC50 [44]: 21.2 µM
IC50 [1]: 0.003 µM

COc1ccc(Cn2c(=O)c(C#N)c(-c3ccc(C)cc3)c3cccc(NC(C)c4ccccn4)c32)cc1Cl (stereo unspecified)
inhibition [2]: 12%

Cc1ccc(-c2c(C#N)c(=O)n(Cc3ccccc3)c3c(NCc4ccccn4)cccc23)cc1
IC50 [1]: 0.02 µM

CC(C)c1c(C#N)c(=O)n(Cc2ccccc2)c2c(NC(C)c3ccccn3)cccc12 (stereo unspecified)
IC50 [1]: 0.039 µM

From ChEMBL document CHEMBL6078681, “Discovery and Optimization of Dihydroquinolin-2(1H)-ones as Novel Highly Selective and Orally Bioavailable Phosphodiesterase 5 Inhibitors for the Treatment of Pulmonary Arterial Hypertension” (J Med Chem, 2024)
